What was measured:
HCT-116 cells [1] = assay: Flow cytometry cell cycle analysis (PI staining); format: cell-based; details: HCT-116, 9.3 µM of compound 6, 48 h
Description: It was clear from the obtained results that member 6 arrested cell cycle progression at the phase G2-M, as it caused a significant elevation of the cell levels by 35.84% versus 12.91% accumulation of the control cells.
Were conducted propidium iodide (PI) staining and flow cytometry analysis.. In-depth discussions have been held in the Supplementary Data. […]
and were expressed as means ± SD. […]
HCT-116 cells were grown in six-well plates (each one contains 2 x 10^5 cells per well) containing 10% foetal bovine serum and incubated for 24 h at 37 °C and 5% CO2. The medium was replaced with (DMSO 1% v/v) containing the 9.3 µM of compound 6, then incubated for 48 h, collected and washed with cold phosphate buffered saline (PBS). After fixation of the collected cells with ice-cold […] ethanol (70%), the cells were rinsed with PBS then stained with the DNA fluorochrome PI, kept for 15 min at 37 °C. Then samples were analyzed with a FACS Caliber flow cytometer. […]

HCT-116 cells [2] = assay: Annexin-V/propidium iodide apoptosis assay; format: cell-based; details: HCT-116, 9.3 µM of compound 6, 48 h
Description: Both extrinsic and intrinsic apoptosis induced by compound 6 in HCT-116 cells was assayed through Annexin-V/propidium iodide staining assay. Marked induction of both early and late apoptosis was observed upon treating HCT-116 cells with 6. […]
Apoptotic activity of compound 6 was evaluated using Annexin V-FITC/PI apoptosis detection kit.
HCT-116 cells ([…]) were seeded and incubated with compound 6 for 48 h, trypsinized, collected and washed with phosphate-buffered saline (PBS) several times; […] cells were stained with […]
Annexin V fluorescein isothiocyanate (FITC) and counterstained with propidium iodide (PI) for 15 min at 37 °C in the dark using the apoptosis detection kit (BD Biosciences, San Jose, CA) according to the manufacturer's protocol. Then, Annexin V-FITC and PI binding were analyzed by a FACS […]
Crystal structure of VEGFR-2 [PDB ID: 2OH4, resolution: 2.07 Å] was obtained from Protein Data Bank. The docking investigation was accomplished using MOE 2014 software. At first, the crystal structure of VEGFR-2 was prepared by removing water molecules. Only one chain was retained beside the co-crystallized ligand. Then, the selected chain was protonated and subjected to minimization of energy process. Next, the active site of the target protein was defined.
Structures of the synthesized compounds and sorafenib (as reference standard) were drawn using ChemBioDraw Ultra 14.0 and saved as MDL-SD format. Such file was opened using MOE to display the 3D structures which were protonated and subjected to energy minimization. Formerly, validation of the docking process was performed by docking the co-crystallized ligand against the isolated pocket of active site. The produced RMSD value indicated the validity of process. Finally, docking of the tested compounds was done through the dock option inserted in compute window.
For each docked molecule, 30 docked poses were produced using ASE for scoring function and force field for refinement. The results of the docking process were then visualized using Discovery […]
ADMET descriptors (absorption, distribution, metabolism, excretion and toxicity) of the compounds were determined using Discovery studio 4.0. At first, the CHARMM force field was applied then the tested compounds were prepared and minimized according to the preparation of small molecule protocol. Then ADMET descriptors protocol was applied to carry out these studies.
The toxicity parameters of the synthesized compounds were calculated using Discovery studio 4.0.
Sorafenib was used as a reference drug. At first, the CHARMM force field was applied then the […]

[3] = tested on: human tumor necrosis factor alpha (TNF-α); assay: In vitro immunomodulatory assay, TNF-α; format: cell-based; details: HCT-116 cells
Description: (§1) The immunomodulatory potentialities of congeners 6 and 7 on HCT-116 cells was also assayed. Two well-defined immunity markers, human tumor necrosis factor alpha (TNF-α), and interleukin 6 (IL6), were measured following the treatment with each compound. In addition, dexamethasone was co-assayed as a reference drug. A considerable reduction in both markers was noticed regarding the two compounds (Table 4).

HepG-2 = assay: In vitro anti-proliferative activity (MTT); format: cell-based; details: Homo sapiens, HepG2, mean ± S.D. of three experiments, read-out: In Vitro Cytotoxicity IC50 HepG-2
Description: (§2) The latter cells were selected owing to their VEGFR-2 overabundance.
(§3) Was conducted the experiment by the MTT procedure. In-depth discussions have been held in the Supplementary Data. […]
(§4) ✓ In vitro anti-proliferative activity against HepG-2 and HCT-116
(§5) The cells were cultured in RPMI-1640 medium supplemented with 10% fetal bovine serum (FBS), penicillin (100 unit /mL) and streptomycin sulphate (100µg/mL) at 37 °C in a 5% CO2 incubator.
(§6) Then, cells were dropped in 96-well plates at a density of 3-8 × 10^3 cells/well and incubated for two days in a 5% CO2 incubator at 37 °C. Then, the cells were treated with the synthesized compounds and the cell cultures were continued incubated for 24 h. However, Different concentrations of the compound under test (0.0, 5.0, 12.5, 25.0 and 50 mg/ml) were added to the cell monolayer. Then, (3-[4,5-dimethylthiazol-2-yl]- 2,5-diphenyltetrazolium bromide) MTT solution (20 µl, 5mg/mL) was added to each well and incubated for additional 4 h. The formed purple crystals of MTT-formazan were dissolved in 100 µl DMSO each well; the absorbance of each well was measured at 570 nm using a plate reader (EXL 800, USA). All compounds were tested three times. The relative cell viability in percentage was calculated. The results for IC50 values of the active compounds are […]
(§7) The data represented the mean of three independent experiments in triplicate and were expressed as means ± SD. […]

HCT-116 = assay: In vitro anti-proliferative activity (MTT); format: cell-based; details: Homo sapiens, mean ± S.D. of three experiments, read-out: In Vitro Cytotoxicity IC50 HCT-116
Description: as §2, §3, §4, §5, §6, §7

interleukin 6 (IL6) = assay: In vitro immunomodulatory assay, IL6; format: cell-based; details: HCT-116 cells
Description: as §1

Human VEGFR-2 = Human VEGFR-2 (Homo sapiens, UniProt P35968); assay: In vitro VEGFR-2 enzyme inhibition assay (ELISA kit)
Description: The ability of the four synthesized congeners to inhibit the VEGFR-2 enzyme in HCT-116 cells was also evaluated.
✓ Assessment of VEGFR-2 inhibition

VEGFR-2 = details: Reported nicotinamide VEGFR-2 inhibitor, Figure 2; no reference given; cited from earlier work

Human VEGFR-2, sequence (P35968 20-1356): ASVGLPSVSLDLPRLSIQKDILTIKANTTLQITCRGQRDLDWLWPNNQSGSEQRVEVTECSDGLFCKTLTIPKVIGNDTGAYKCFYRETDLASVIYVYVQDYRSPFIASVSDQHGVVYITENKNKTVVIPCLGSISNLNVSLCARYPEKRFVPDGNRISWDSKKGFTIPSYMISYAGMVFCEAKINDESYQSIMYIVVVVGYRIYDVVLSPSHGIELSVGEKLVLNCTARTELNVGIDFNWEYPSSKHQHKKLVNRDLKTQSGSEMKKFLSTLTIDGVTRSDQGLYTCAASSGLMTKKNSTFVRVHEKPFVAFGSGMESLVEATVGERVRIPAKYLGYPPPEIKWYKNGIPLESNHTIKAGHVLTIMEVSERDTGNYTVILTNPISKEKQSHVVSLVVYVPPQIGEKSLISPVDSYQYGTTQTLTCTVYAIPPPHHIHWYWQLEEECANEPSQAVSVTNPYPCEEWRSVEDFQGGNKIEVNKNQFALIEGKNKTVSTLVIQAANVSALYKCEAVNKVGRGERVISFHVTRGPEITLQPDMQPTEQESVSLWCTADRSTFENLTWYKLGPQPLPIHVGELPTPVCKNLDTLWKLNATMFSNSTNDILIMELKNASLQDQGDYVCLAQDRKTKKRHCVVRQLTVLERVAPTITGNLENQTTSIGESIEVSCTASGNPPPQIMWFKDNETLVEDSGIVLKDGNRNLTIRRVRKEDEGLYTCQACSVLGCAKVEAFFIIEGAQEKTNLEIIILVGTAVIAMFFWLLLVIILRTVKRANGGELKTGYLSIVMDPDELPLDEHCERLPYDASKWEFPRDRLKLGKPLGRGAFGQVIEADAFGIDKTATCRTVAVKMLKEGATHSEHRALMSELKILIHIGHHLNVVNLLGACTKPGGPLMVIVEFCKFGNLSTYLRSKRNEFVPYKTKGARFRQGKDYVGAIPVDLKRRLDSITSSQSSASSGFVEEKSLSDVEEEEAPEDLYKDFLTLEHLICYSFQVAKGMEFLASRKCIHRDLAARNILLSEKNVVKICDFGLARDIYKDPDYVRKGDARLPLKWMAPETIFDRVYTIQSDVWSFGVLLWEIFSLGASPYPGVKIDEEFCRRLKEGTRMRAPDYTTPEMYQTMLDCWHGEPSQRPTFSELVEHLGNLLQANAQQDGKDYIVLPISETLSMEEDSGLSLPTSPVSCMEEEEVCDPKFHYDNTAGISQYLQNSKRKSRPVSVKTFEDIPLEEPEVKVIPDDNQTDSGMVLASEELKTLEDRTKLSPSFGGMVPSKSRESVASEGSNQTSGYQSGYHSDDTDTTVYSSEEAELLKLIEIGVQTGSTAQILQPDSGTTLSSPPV

Structure (SMILES) | % Inhibition of TNF-α pg/mL [3] [%] | IC50 (HepG-2) [µM] | IC50 (HCT-116) [µM] | % Inhibition of IL6 pg/mL (interleukin 6 (IL6)) [%] | IC50 (Human VEGFR-2) [µM] | further results
O=C(NN=Cc1ccc(Cl)cc1)c1ccc(NC(=O)c2cccnc2)cc1 [Compound 6, N-{4-[2-(4-Chlorobenzylidene)hydrazine-1-carbonyl]phenyl}nicotinamide] | 66.42 | 7.8 ± 0.025 | 9.3 ± 0.02 | 57.34 | 0.0608 ± 0.00381 | % G0-G1 (HCT-116 cells [1]): 36.71%; % G2-M (HCT-116 cells [1]): 35.84%; % Pre-G1 (HCT-116 cells [1]): 16.93%; % S (HCT-116 cells [1]): 27.45%; Apoptosis Early (HCT-116 cells [2]): 5.78%; Apoptosis Late (HCT-116 cells [2]): 9.75%; Apoptosis Total (HCT-116 cells [2]): 16.93; Necrosis (HCT-116 cells [2]): 1.40%
O=C(NN=Cc1ccccc1O)c1ccc(NC(=O)c2cccnc2)cc1 [Compound 7, N-{4-[2-(2-Hydroxybenzylidene)hydrazine-1-carbonyl]phenyl}nicotinamide] | 60.54 | 10.2 ± 0.035 | 15.9 ± 0.041 | 52.75 | 0.129 ± 0.00832 | 
O=C(NN=Cc1c[nH]c2ccccc12)c1ccc(NC(=O)c2cccnc2)cc1 [Compound 8, N-{4-[2-((1H-Indol-3-yl)methylene)hydrazine-1-carbonyl]phenyl}nicotinamide] |  | 16.03 ± 0.051 | 20.5 ± 0.052 |  | 0.23 ± 0.0102 | 
CC(=NNC(N)=O)c1ccc(NC(=O)c2cccnc2)cc1 [Compound 10, N-{4-[1-(2-Carbamoylhydrazineylidene)ethyl]phenyl}nicotinamide] |  | 17.6 ± 0.048 | 24.2 ± 0.06 |  | 0.0636 ± 0.00331 | 
C[C@@H]1C[C@H]2[C@@H]3CCC4=CC(=O)C=C[C@]4(C)[C@@]3(F)[C@@H](O)C[C@]2(C)[C@@]1(O)C(=O)CO [Dexamethasone, reference compound] | 82.47 |  |  | 93.15 |  | 
C/C(=N\Nc1ccccc1)c1ccc(NC(=O)c2cccnc2)cc1 [II] |  |  |  |  |  | IC50 (VEGFR-2): 0.0231 µM

— PMC9571953, “Discovery of New VEGFR-2 Inhibitors: Design, Synthesis, Anti-Proliferative Evaluation, Docking, and MD Simulation Studies” (Molecules, 2022)
